Measurements taken from patent publication US20260124170A1, “PHARMACEUTICAL COMPOSITION COMPRISING METABOLITE OF ENAVOGLIFLOZIN, AND USE THEREOF” (DAEWOONG PHARMACEUTICAL CO., LTD., priority 2022, published 2026).
Several values for one entry are separate records, joined by “and”; a condition that tells them apart may be missing. Equal values may be shown once. Read-outs that look alike come from different tables or passages of the source.

Key:
Format in all cases: cell-based
SGLT1 [1] = molecular target: T1, SGLT1 (Homo sapiens, UniProt P13866); test: SGLT1 inhibition with varied substrate AMG concentration (Dixon / L-B plot); conditions: for Inhibition mechanism, SGLT1: CHO-SGLT1, varied AMG concentration; for Ki: from slope of L-B plot, CHO-SGLT1
T1 construct: expressed in transfected cells
T1 sequence (P13866 1-664): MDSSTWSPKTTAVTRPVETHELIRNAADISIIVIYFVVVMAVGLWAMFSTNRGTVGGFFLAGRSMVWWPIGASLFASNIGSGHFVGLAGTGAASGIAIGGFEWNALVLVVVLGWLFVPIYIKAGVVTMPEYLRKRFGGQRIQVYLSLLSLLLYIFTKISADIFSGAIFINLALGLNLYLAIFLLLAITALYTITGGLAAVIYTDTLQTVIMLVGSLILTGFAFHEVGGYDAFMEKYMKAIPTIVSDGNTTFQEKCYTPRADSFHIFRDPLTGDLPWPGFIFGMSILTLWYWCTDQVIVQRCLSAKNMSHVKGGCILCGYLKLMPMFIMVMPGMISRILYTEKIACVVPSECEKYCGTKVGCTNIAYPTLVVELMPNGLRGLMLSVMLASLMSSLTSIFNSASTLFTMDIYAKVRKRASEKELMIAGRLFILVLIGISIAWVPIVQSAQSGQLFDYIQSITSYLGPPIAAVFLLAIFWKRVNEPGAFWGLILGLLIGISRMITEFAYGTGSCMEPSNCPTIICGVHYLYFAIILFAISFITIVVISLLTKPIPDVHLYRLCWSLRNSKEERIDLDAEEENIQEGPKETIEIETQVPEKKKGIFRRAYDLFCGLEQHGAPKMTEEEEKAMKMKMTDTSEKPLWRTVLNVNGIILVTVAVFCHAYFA
Protocol: From these, the inhibition mechanism was confirmed, and the inhibition constant was calculated.

SGLT2 = molecular target: T2, SGLT2 (Homo sapiens, UniProt P31639); test: Change in SGLT2 inhibition according to drug pretreatment time (CHO-SGLT2); conditions: for IC50: CHO-SGLT2; for Change in SGLT2 inhibition as exposure time increased: pretreatment 0, 1, 2 h, one-way ANOVA
T2 construct: expressed in transfected cells
T2 sequence (P31639 1-672): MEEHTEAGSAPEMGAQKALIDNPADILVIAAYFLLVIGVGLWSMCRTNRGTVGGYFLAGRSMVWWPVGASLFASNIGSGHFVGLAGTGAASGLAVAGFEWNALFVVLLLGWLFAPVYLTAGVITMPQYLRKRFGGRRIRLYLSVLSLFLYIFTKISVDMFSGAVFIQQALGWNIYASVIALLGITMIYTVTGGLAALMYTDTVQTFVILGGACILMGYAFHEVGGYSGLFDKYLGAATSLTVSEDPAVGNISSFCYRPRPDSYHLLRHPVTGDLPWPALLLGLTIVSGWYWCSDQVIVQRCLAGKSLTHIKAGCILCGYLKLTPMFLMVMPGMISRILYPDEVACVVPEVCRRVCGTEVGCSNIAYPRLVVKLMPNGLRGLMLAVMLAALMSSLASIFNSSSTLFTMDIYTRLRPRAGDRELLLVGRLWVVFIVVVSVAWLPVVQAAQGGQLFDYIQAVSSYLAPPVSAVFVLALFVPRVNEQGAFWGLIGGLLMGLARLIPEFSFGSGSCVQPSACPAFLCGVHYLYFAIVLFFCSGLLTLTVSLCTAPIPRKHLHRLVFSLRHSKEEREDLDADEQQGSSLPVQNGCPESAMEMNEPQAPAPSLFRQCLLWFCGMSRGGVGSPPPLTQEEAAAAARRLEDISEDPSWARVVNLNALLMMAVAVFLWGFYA
Text: All data values are expressed as the mean±SD of […].

SGLT1 [2] = molecular target: T1, SGLT1; test: Whole-cell patch clamp glucose current, binding and dissociation, CHO-SGLT1; conditions: for Dissociation degree T1/2, off (s), SGLT1: washout
Protocol: When SGLT1- and SGLT2-overexpressing cell lines (CHO-SGLT1, CHO-SGLT2 stable cells) were cultured to reach 60% confluency, the cells were treated with 0.05% trypsin to detach the cells from the bottom of the plate, suspended in 200 μL of culture medium, and used at room temperature.
Glucose reabsorption is induced by the Na^+ electrochemical potential gradient in the kidneys via SGLT2, and glucose diffuses across the cell membrane into the blood via glucose transporter 2 (GLUT-2), which enables facilitated glucose transport. While one Na^+ ion is absorbed per glucose molecule through SGLT2, two Nations are absorbed per glucose molecule through SGLT1. Therefore, by varying the composition of the buffer, only the glucose current was recorded, excluding the Na^+ current.
The experiment was conducted as described below.
1) Using a Narishige puller, a glass micropipette was made in two stages of 62.7° C. and 57° C., filled with an internal solution (145 mM CsCl, 5 mM NaCl, 10 mM HEPES, 11 mM ethylene glycol-bis(2-aminoethylether)-N,N,N′,N′-tetraacetic acid (EGTA), pH 7.2), and then inserted into the Ag/AgCl2 electrode of the patch clamp head-stage.
2) SGLT1 or SGLT2 cells were seeded on a chamber which was coated with poly-L-lysine in advance, and then an external solution (150 mM NaCl, 10 mM HEPES, 1 mM CaCl2), 1 mM MgCl2, pH 7.4) was flowed to ensure that the cells were sufficiently submerged. A temperature control device was used to maintain the temperature of the chamber at 36.5±0.5° C.
3) Using a micromanipulator, the glass micropipette was attached to the cell membrane to create a giga-ohm seal, which was then ruptured to detach the cell membrane (whole-cell mode, 3 to 5 MΩ).
4) The cells were fixed at −60 mV (holding potential), and the current [I^total current (Na^+/Glucose current (pA))] was measured in a gap-free data acquisition mode.
5) The external solution was continuously flowed into the chamber containing the cells, and the current (I^total) was recorded for about 30 seconds to 1 minute (stabilization), and then the external solution with added glucose (Na^+/Glucose external) (150 mM NaCl, 10 mM HEPES, 1 mM CaCl2), 1 mM MgCl2, 100 mM glucose, pH 7.4) was flowed to record the glucose current (I^glucose). Then, the cells were exposed to the external solution with added glucose containing one concentration of the compound for two minutes, and the glucose current suppressed by the compound was recorded.
7) After confirming the recovery of the current, the solution was replaced with a sodium-free external solution (Na^+-free external) (150 mM Choline-Cl, 1 mM CaCl2), 1 mM MgCl2, pH 7.4) and the Na^+ current was recorded. After the current was stabilized, the solution was replaced with the external solution to record the current in the resting state when the cells were not stimulated, thereby securing the reliability of the experimental system.
For statistical analysis of data, pCLAMP10.4 (Molecular Devices, LLC, San Jose, CA, USA) or Origin6.0 (OriginLab, Northampton, MA, USA) was used.
The test results were expressed as the mean±SD of the mean. Statistical significance was verified using the nonparametric Kruskal-Wallis test using Statistical Package for the Social Sciences (SPSS) for Windows (version 26.0, IBM Corp., Armonk, NY, USA). The significance level was set at p<0.05.

[3] = IC50 according to pretreatment time (nM), SGLT2, 1 h, 1 h pretreatment in sodium-free buffer
[4] = IC50 according to pretreatment time (nM), SGLT2, 2 h, 2 h pretreatment in sodium-free buffer
[5] = no pretreatment, read-out: IC50 according to pretreatment time (nM), SGLT2, 0 h

| Inhibition mechanism, SGLT1 (SGLT1 [1]) | Ki (SGLT1 [1]) | IC50 (SGLT2; [3]) | IC50 (SGLT2; [4]) | IC50 (SGLT2; [5]) | Change in SGLT2 inhibition as exposure time increased (SGLT2) | Binding affinity T1/2, on (s), SGLT1 (SGLT1 [2]; treatment concentration 20 μM) | Dissociation degree T1/2, off (s), SGLT1 (SGLT1 [2]; treatment concentration 20 μM) | Dissociation from SGLT1, times slower than dapagliflozin (SGLT1 [2]; ratio of T1/2,off) | Dissociation from SGLT1, times slower than enavogliflozin (SGLT1 [2]; ratio of T1/2,off) | Binding affinity T1/2, on (s), SGLT1 (SGLT1 [2]; treatment concentration 5 μM) | Dissociation degree T1/2, off (s), SGLT1 (SGLT1 [2]; treatment concentration 5 μM) | Dissociation degree T1/2, off (s), SGLT1 (SGLT1 [2]; treatment concentration 5 μM, listed as enavogliflozin) | SMILES |
| --- | --- | --- | --- | --- | --- | --- | --- | --- | --- | --- | --- | --- | --- |
| Competitive inhibition | 1870 nM | 3.63 ± 0.83 nM | 3.24 ± 0.81 nM | 2.75 ± 0.36 nM | did not increase or significantly change | 15.7 ± 6.5 s | 23.5 s and 23.5 ± 10.4 s |  |  |  |  |  | OC[C@H]1O[C@@H](c2cc(Cc3ccc(C4(O)CC4)cc3)c(Cl)c3c2CCO3)[C@H](O)[C@@H](O)[C@@H]1O [M2, (2S,3R,4R,5S,6R)-2-(7-chloro-6-(4-(1-hydroxycyclopropyl)benzyl)-2,3-dihydrobenzofuran-4-yl)-6-(hydroxymethyl)tetrahydro-2H-pyran-3,4,5-triol] |
| Competitive inhibition | 84.8 nM | 5.24 ± 1.1 nM | 9.95 ± 3.14 nM | 8.44 ± 0.77 nM | did not increase or significantly change |  |  | 1.96 times | 1.7 times | 18.8 ± 4.1 s | 59.8 s and 59.8 ± 11.5*^, + s |  | OC[C@H]1O[C@@H](c2cc(Cc3ccc(C4CC4)cc3)c(Cl)c3c2CC(O)O3)[C@H](O)[C@@H](O)[C@@H]1O (stereo partly drawn) [M1, (2S,3R,4R,5S,6R)-2-(7-chloro-6-(4-cyclopropylbenzyl)-2-hydroxy-2,3-dihydrobenzofuran-4-yl)-6-(hydroxymethyl)tetrahydro-2H-pyran-3,4,5-triol] |
| Competitive inhibition | 495 nM | 0.285 ± 0.188 nM | 0.519 ± 0.222 nM | 0.388 ± 0.119 nM | did not increase or significantly change |  |  |  |  | 11.5 ± 4.2 s | 34.9 ± 9.6 s | 34.9 s | OC[C@H]1O[C@@H](c2cc(Cc3ccc(C4CC4)cc3)c(Cl)c3c2CCO3)[C@H](O)[C@@H](O)[C@@H]1O [Enavogliflozin, (2S,3R,4R,5S,6R)-2-(7-chloro-6 (4-cyclopropylbenzyl)-2,3-dihydrobenzofuran-4-yl)-6-(hydroxymethyl)tetrahydro-2H-pyran-3,4,5-triol] |
